# Calls of active or inactive are those of the source. The rule behind the calls is not given here.
# Columns and labels:
# [1] = Induction of apoptosis in human XG6 cells assessed as viable cells at 12.5 uM after 48 hrs by annexinV/propidium iodide staining (reference value: 83.3%); type: functional; conditions: XG6, 48 h, read-out: Activity
# [2] = test system: Tyrosine-protein kinase ABL1 (Homo sapiens), P00519 [F317L]; test: Inhibition of ABL1 F317L mutant (unknown origin) at 2.5 uM after 20 mins
# [3] = test system: SK-MM-2; test: Cytotoxicity against human SKMM-2 cells assessed as growth inhibition after 48 hrs by MTT assay; type: functional, cell-based
# [4] = test system: JJN-3; test: Induction of apoptosis in human JJN-3 cells assessed as early apoptotic cells at 12.5 uM after 48 hrs by annexinV/propidium iodide staining (reference value: 13.3%); type: functional
# [5] = molecular target: Signal transducer and activator of transcription 3 (Homo sapiens) (UniProt P40763); test: Displacement of FAM-GpYLPQTV-NH2 from full-length Stat3 SH2 domain (unknown origin) up to 100 uM by fluorescence polarization
# Sequence of Signal transducer and activator of transcription 3 (Homo sapiens) (P40763 whole entry, the tested form may be a part): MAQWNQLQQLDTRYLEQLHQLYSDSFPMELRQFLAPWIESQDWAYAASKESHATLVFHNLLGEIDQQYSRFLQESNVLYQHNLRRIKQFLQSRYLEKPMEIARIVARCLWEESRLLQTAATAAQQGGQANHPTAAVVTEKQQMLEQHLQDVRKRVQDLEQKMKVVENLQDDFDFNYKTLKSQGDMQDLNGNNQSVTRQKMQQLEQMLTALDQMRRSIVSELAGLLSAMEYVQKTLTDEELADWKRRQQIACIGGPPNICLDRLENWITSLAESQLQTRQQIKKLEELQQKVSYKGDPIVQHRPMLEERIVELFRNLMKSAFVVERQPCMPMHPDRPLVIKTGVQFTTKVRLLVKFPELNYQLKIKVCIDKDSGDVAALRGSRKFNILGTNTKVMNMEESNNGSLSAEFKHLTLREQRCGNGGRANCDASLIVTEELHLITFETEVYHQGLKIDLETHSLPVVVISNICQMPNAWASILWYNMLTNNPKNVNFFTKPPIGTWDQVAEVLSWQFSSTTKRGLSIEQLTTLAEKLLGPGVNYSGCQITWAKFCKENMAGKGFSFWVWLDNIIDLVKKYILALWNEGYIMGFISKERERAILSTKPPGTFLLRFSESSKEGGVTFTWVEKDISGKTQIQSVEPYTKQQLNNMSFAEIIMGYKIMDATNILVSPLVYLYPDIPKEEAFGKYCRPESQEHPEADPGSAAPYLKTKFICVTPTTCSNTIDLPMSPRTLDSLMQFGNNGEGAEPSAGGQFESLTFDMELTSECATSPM
# [6] = molecular target: T1, Tyrosine-protein kinase JAK2 (Homo sapiens, UniProt O60674); test: Inhibition of JAK2 (unknown origin) at 50 uM after 20 mins
# T1 sequence (O60674 whole entry): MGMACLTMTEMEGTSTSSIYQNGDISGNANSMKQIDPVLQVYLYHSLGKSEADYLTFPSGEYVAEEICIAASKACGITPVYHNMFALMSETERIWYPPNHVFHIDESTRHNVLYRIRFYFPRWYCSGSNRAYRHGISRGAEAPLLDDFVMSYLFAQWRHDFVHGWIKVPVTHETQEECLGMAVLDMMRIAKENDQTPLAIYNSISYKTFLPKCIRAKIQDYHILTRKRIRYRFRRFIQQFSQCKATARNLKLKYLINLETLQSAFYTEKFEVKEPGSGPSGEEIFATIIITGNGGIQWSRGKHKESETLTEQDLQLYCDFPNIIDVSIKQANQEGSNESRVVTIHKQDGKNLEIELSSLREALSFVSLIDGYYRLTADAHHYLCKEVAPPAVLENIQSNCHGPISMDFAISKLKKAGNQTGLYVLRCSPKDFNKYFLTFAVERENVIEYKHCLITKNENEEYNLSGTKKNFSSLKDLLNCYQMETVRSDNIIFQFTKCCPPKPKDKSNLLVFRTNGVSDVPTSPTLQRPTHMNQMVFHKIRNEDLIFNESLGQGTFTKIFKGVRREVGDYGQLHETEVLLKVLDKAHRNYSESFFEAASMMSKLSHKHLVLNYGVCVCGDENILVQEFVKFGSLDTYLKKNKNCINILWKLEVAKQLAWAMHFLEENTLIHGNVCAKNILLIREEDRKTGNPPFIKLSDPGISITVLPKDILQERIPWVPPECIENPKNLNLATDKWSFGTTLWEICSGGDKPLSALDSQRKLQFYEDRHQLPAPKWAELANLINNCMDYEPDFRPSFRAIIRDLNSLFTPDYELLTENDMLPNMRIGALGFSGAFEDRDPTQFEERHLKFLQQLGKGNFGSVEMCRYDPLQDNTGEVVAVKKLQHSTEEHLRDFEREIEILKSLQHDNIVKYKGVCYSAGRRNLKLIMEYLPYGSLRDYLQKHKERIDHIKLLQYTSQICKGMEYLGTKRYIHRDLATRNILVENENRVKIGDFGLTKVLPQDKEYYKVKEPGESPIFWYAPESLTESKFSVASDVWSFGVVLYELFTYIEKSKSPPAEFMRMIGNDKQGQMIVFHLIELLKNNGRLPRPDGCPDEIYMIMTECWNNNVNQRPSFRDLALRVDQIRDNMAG
# [7] = Induction of apoptosis in human XG6 cells assessed as late apoptotic cells at 12.5 uM after 48 hrs by annexinV/propidium iodide staining (reference value: 7.78%); type: functional
# [8] = Induction of apoptosis in human XG6 cells assessed as late apoptotic cells at 7.5 uM after 48 hrs by annexinV/propidium iodide staining (reference value: 7.78%); type: functional
# [9] = molecular target: T1, Tyrosine-protein kinase JAK2; test: Inhibition of JAK2 (unknown origin) after 20 mins
# [10] = Induction of apoptosis in human XG6 cells assessed as early apoptotic cells at 12.5 uM after 48 hrs by annexinV/propidium iodide staining (reference value: 8.62%); type: functional
# [11] = molecular target: AP2-associated protein kinase 1 (Homo sapiens) (UniProt Q2M2I8); test: Inhibition of AAK1 (unknown origin) at 2.5 uM after 20 mins
# Sequence of AP2-associated protein kinase 1 (Homo sapiens) (Q2M2I8 whole entry, looked up): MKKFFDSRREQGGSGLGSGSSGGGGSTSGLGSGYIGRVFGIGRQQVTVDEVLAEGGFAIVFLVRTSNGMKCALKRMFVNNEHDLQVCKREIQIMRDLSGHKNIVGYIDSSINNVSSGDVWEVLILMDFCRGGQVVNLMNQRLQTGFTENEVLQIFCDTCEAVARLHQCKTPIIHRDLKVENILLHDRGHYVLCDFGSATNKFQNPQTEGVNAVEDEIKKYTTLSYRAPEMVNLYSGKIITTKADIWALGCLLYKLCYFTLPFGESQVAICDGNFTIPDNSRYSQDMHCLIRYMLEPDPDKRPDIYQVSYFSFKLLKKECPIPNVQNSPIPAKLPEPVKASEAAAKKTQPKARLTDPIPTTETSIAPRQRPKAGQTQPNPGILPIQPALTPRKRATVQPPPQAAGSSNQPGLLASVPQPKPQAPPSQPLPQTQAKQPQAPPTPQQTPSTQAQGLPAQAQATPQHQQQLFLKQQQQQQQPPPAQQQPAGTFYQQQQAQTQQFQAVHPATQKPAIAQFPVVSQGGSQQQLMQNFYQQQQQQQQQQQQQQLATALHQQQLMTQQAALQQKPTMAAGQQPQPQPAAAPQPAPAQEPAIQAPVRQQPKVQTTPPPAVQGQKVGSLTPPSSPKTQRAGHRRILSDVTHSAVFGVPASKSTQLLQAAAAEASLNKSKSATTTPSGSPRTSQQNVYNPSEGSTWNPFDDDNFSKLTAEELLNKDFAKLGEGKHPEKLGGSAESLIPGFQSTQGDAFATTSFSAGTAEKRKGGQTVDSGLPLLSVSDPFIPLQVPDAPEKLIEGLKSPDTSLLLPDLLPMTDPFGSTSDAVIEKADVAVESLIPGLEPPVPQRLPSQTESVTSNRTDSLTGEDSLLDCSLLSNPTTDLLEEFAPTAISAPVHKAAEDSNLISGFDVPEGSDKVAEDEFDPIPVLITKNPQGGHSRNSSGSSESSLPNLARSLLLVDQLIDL
# [12] = test system: DU-145; test: Cytotoxicity against human DU145 cells after 72 hrs by MTS assay; type: functional, cell-based
# [13] = molecular target: Signal transducer and activator of transcription 3 (Homo sapiens) (UniProt P40763); test: Displacement of FAM-GpYLPQTV-NH2 from full-length Stat3 SH2 domain (unknown origin) up to 400 uM by fluorescence polarization
# [14] = molecular target: T2, Tyrosine-protein kinase JAK3 (Homo sapiens, UniProt P52333); test: Inhibition of JAK3 (unknown origin) after 20 mins
# T2 sequence (P52333 whole entry): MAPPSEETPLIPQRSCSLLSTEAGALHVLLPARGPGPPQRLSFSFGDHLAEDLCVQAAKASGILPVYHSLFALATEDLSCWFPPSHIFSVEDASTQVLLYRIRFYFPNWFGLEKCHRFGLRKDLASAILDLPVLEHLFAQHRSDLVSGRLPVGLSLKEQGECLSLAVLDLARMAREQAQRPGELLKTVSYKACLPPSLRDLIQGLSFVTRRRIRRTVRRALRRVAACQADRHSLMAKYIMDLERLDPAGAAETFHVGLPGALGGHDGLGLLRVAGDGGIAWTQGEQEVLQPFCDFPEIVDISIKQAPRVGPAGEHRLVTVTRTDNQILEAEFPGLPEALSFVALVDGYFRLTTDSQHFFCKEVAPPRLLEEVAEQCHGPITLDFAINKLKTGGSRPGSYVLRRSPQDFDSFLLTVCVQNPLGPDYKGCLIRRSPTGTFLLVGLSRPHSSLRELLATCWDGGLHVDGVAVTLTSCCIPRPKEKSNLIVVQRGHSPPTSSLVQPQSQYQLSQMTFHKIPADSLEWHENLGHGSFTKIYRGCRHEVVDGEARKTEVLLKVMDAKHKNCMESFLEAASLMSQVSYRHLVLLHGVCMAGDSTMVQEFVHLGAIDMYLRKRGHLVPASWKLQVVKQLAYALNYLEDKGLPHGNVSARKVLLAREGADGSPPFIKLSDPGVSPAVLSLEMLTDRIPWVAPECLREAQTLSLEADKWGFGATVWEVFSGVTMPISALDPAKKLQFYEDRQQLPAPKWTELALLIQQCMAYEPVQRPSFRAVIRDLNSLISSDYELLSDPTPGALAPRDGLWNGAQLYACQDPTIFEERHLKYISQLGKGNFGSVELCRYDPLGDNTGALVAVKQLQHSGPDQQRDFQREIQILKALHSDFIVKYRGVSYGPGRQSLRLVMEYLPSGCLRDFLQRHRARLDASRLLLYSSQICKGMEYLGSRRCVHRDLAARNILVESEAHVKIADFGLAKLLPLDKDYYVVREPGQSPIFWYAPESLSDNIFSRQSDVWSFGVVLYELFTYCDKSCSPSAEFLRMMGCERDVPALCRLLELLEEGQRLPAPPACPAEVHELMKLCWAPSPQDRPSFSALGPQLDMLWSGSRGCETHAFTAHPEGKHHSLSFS
# [15] = test system: XG6; test: Cytotoxicity against human XG6 cells assessed as growth inhibition at 10 uM after 48 hrs by MTT assay; type: functional, cell-based
# [16] = molecular target: Leukocyte tyrosine kinase receptor (Homo sapiens, UniProt P29376); test: Inhibition of TYK1 (unknown origin) after 20 mins
# Sequence of Leukocyte tyrosine kinase receptor (P29376 whole entry): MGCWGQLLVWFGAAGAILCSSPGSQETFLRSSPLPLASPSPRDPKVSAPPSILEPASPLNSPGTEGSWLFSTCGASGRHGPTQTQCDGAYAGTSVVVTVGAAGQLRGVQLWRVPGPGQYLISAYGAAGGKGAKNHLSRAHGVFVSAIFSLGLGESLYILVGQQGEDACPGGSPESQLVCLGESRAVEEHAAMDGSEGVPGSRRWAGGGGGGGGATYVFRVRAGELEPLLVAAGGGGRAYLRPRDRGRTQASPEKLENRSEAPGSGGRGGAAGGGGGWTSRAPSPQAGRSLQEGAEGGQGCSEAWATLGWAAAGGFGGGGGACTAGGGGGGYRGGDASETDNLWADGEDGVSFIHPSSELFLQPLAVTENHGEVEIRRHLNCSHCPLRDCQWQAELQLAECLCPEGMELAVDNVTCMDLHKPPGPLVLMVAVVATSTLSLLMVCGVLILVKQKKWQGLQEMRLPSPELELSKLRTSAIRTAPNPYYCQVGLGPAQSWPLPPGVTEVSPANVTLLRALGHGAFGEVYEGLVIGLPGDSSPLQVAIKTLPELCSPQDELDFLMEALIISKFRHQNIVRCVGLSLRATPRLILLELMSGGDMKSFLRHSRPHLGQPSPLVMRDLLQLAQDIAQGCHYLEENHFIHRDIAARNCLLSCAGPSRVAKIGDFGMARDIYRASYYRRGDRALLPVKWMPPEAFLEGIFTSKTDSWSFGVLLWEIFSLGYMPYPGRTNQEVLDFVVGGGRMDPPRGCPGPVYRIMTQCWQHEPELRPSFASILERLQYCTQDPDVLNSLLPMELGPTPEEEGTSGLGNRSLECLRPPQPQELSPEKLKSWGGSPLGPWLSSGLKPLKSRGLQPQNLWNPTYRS
# [17] = test system: XG6; test: Induction of apoptosis in human XG6 cells assessed as late apoptotic cells at 15 uM after 48 hrs by annexinV/propidium iodide staining; type: functional, cell-based
# [18] = molecular target: T3, Tyrosine-protein kinase JAK3 (Homo sapiens) (UniProt P52333); test: Inhibition of JAK3 (unknown origin) at 50 uM after 20 mins
# T3 sequence (whole entry): T2 sequence (P52333 whole entry)
# [19] = test system: JJN-3; test: Induction of apoptosis in human JJN-3 cells assessed as late apoptotic cells at 7.5 uM after 48 hrs by annexinV/propidium iodide staining (reference value: 9.59%); type: functional
# [20] = Induction of apoptosis in human XG6 cells assessed as viable cells at 7.5 uM after 48 hrs by annexinV/propidium iodide staining (reference value: 83.3%); type: functional; conditions: XG6, 48 h, read-out: Activity
# [21] = test system: JJN-3; test: Induction of apoptosis in human JJN-3 cells assessed as viable cells at 12.5 uM after 48 hrs by annexinV/propidium iodide staining (reference value: 75.9%); type: functional; conditions: JJN-3, 48 h, read-out: Activity
# [22] = test system: JJN-3; test: Induction of apoptosis in human JJN-3 cells assessed as viable cells at 7.5 uM after 48 hrs by annexinV/propidium iodide staining (reference value: 75.9%); type: functional; conditions: JJN-3, 48 h, read-out: Activity
# [23] = test system: JJN-3; test: Induction of apoptosis in human JJN-3 cells assessed as late apoptotic cells at 12.5 uM after 48 hrs by annexinV/propidium iodide staining (reference value: 9.59%); type: functional
# [24] = molecular target: Tyrosine-protein kinase JAK1 (Homo sapiens) (UniProt P23458); test: Inhibition of JAK1 (unknown origin) at 100 uM after 20 mins
# Sequence of Tyrosine-protein kinase JAK1 (Homo sapiens) (P23458 whole entry): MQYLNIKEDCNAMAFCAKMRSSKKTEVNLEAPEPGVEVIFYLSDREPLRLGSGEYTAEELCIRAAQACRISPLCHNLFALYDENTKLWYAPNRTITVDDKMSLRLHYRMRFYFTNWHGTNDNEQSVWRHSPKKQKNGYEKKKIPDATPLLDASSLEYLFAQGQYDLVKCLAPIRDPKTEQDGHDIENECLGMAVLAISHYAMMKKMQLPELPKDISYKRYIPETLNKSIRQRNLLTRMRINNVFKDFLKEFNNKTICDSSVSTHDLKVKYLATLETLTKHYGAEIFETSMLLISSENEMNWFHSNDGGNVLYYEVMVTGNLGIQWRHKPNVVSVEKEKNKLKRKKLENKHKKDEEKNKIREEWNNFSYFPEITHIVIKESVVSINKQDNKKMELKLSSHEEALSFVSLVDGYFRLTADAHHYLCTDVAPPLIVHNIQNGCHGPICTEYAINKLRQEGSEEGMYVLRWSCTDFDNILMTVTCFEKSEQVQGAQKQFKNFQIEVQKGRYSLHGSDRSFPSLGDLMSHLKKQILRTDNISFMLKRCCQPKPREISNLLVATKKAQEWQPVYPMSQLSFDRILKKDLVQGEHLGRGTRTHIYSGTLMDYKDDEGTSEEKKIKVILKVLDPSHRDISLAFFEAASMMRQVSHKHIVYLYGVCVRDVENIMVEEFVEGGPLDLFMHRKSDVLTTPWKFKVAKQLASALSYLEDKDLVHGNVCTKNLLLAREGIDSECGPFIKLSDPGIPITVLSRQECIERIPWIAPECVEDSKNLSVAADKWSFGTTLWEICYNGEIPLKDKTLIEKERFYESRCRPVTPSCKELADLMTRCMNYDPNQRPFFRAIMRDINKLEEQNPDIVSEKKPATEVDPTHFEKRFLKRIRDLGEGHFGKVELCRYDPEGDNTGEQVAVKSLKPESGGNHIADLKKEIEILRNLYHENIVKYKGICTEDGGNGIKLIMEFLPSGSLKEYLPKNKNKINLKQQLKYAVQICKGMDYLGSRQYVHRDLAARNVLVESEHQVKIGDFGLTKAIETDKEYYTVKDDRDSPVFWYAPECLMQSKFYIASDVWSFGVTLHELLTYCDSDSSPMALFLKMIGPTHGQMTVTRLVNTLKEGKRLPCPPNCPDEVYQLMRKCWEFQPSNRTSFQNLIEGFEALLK
# [25] = test system: JJN-3; test: Cytotoxicity against human JJN-3 cells assessed as growth inhibition after 48 hrs by MTT assay; type: functional, cell-based
# [26] = test system: MDA-MB-468; test: Cytotoxicity against human MDA-MB-468 cells after 72 hrs by MTS assay; type: functional, cell-based; conditions: MDA-MB-468, 72 h
# [27] = test system: JJN-3; test: Induction of apoptosis in human JJN-3 cells assessed as early apoptotic cells at 7.5 uM after 48 hrs by annexinV/propidium iodide staining (reference value: 13.3%); type: functional
# [28] = test system: OCI-AML2; test: Cytotoxicity against human OCI-AML2 cells after 72 hrs by MTS assay; type: functional, cell-based
# [29] = molecular target: Signal transducer and activator of transcription 3 (Homo sapiens) (UniProt P40763); test: Inhibition of STAT3 phosphorylation in IL-6 stimulated human OPM2 cells at > IC50 after 30 mins by flow cytometry; type: cell-based; conditions: OPM-2
# [30] = Induction of apoptosis in human XG6 cells assessed as early apoptotic cells at 7.5 uM after 48 hrs by annexinV/propidium iodide staining (reference value: 8.62%); type: functional
smiles,measurement,setting,value
NS(=O)(=O)OCCn1cnc2c(Nc3ccc(F)cc3)nc(NCc3ccc(C4CCCCC4)cc3)nc21,viability at 12.5 µM,[1],1.98%
same,inhibition,[2],50%
same,growth inhibition (GI),[3],Active
same,Activity,[4],19.5%
same,inhibition,[5],inactive
same,inhibition,[6],50%
same,Activity,[7],74.4%
same,Activity,[8],23.2%
same,IC50,[9],16.6 µM
same,Activity,[10],7.57%
same,inhibition,[11],52%
same,Activity,[12],Active
same,inhibition,[13],inactive
same,IC50,[14],10.5 µM
same,growth inhibition (GI),[15],Active
same,IC50,[16],10.6 µM
same,Activity,[17],Active
same,inhibition,[18],85%
same,Activity,[19],16%
same,viability at 7.5 µM,[20],53.8%
same,viability at 12.5 µM,[21],36.4%
same,viability at 7.5 µM,[22],64.5%
same,Activity,[23],38.8%
same,inhibition,[24],Active
same,growth inhibition (GI),[25],inactive
same,EC50,[26],19.9 µM
same,Activity,[27],17.6%
same,Activity,[28],Active
same,inhibition,[29],inactive
same,Activity,[30],22.7%

# Source: ChEMBL document CHEMBL3124828, “A 2,6,9-hetero-trisubstituted purine inhibitor exhibits potent biological effects against multiple myeloma cells” (Bioorg Med Chem, 2013)
